For one data set, the target named is full-length TMEM97 (Homo sapiens, UniProt Q5BJF2). Kind of data set: SPR, recombinant full-length TMEM97. It is filed as binding. The conditions noted are these: Biacore 8K, pH 7.4, 25 °C.
Data set [1] addresses synthetic TMEM97 (108-176) (Homo sapiens, UniProt Q5BJF2). Nature of the data set: SPR, synthetic TMEM97. Type of data set: binding. The conditions noted are these: Biacore 8K, pH 7.4, 25 °C. Background: SPR reads the build-up and loss of mass on a sensor chip optically.
A further data set deals with GST-TMEM97 (108-176) (Homo sapiens, UniProt Q5BJF2). Nature of the data set: SPR, recombinant GST-TMEM97. The conditions noted are these: Biacore 8K, pH 7.4, 25 °C. Type of data set: binding.
The subject of another data set is TMEM97 (108-176). Nature of the data set: Circular dichroism, secondary structure on mixing with TMEM97. Type of data set: binding. The conditions noted are these: CD, pH 7.4, 0.05% DDM, room temperature. Background: CD spectra are sensitive to the conformation of chiral molecules.
In another data set the test system is HCE cells. Kind of data set: Hst1 localization by immunofluorescence after DTG pretreatment. It is filed as cell-based, human. The conditions noted are these: pretreatment with escalating concentrations of DTG (Fig. S4).
Data set [2] is described as follows: Circular dichroism, secondary structure of peptide alone in solution. Type of data set: physicochemical. The conditions noted are these: CD, TMEM97 (108-176) alone, pH 7.4, 0.05% DDM, room temperature, DichroWeb.
A further data set has as its system HSC70. The conditions noted are these: cited from earlier work.
Data set [3] deals with Recombinant full-length TMEM97 (Sigma-2 receptor) (UniProt Q5BJF2 1-176). Kind of data set: SPR.
Data set [4] deals with T1, Synthetic TMEM97 (108-176).
T1 peptide: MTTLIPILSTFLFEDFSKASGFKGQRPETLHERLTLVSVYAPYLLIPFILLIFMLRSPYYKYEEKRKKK
Kind of data set: SPR.

Data set [5] has as its target Recombinant GST-TMEM97 (108-176) (UniProt Q5BJF2 108-176). Nature of the data set: SPR.
The target of data set [6] is TMEM97 (S2R) overexpressed in HEK293T cell membranes (UniProt Q5BJF2 1-176). Kind of data set: radioligand binding.

“Also recorded” adds a separate entry of the source. Where no end group is shown, it is not given here. [ ]: non-standard residue; d: D form. pS = N[C@@H](COP(=O)(O)O)C(=O)O

Sequence of full-length TMEM97 (Q5BJF2 whole entry): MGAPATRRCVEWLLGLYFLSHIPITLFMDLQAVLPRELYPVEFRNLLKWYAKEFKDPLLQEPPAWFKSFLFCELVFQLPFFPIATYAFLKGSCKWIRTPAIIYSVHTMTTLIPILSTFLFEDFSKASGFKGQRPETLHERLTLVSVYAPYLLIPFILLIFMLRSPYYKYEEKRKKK

For “HYHKFHRYYDPGSNLYKEHNHGFHHGYKDEFRREpSRDS [Hst1SP]”, the “Binding by SPR (in words)” value on full-length TMEM97 is recorded as “did not exhibit binding; also recorded: unable to bind”; in data set [1], “did not bind”; at GST-TMEM97 (108-176) it was “did not exhibit binding; also recorded: unable to bind”. For the same molecule, in the data set on TMEM97 (108-176), the “Change of secondary structure on mixing with TMEM97 (108-176)” value is “did not induce increased secondary structural features; also recorded: did not induce increased secondary structural elements”.
Regarding `Cc1ccccc1NC(=N)Nc1ccccc1C` [DTG, 1,3-di-o-tolylguanidine], in the data set with HCE cells, the “Effect on Hst1 localization” value is listed as “Hst1 localization is reduced by pretreatment with DTG”.
As for “MTTLIPILSTFLFEDFSKASGFKGQRPETLHERLTLVSVYAPYLLIPFILLIFMLRSPYYKYEEKRKKK [TMEM97 (108-176)]”, in data set [2], the Turns content was 14%, the Unordered content was found to be 17% and the β-strand content is 23%.
Regarding “Hst3: histatin-3, histatin family peptide cited from Imamura et al. (DSHAKRHHGYKRKFHEKHHSHRGYRSNYLYDN; Histatin-3; UniProt P15516 20-51, looked up)”, the “Interaction with HSC70” value with HSC70 was “interact with, but not clearly directly bind”.
Usually Kd stands for the constant that tells how readily two partners part at equilibrium. For orientation: Ki means the dissociation constant of the complex between target and ligand, obtained from inhibition or displacement. Low readings indicate higher affinity, high ones lower affinity. As to D[pS]HEKRHHGYRRKFHEKHHSHREFPFYGDYGSNYLYDN [Histatin-1 (Hst1)], the Kd in [3] was 5.3 µM; in [4], 6.3 µM; in data set [5], 6.6 µM. Besides, the inhibition constant Ki in [6] amounted to 0.239 µM.

The values are drawn from PMC8648968 (The FEBS journal, 2021).
